≈ marks a conversion by molar mass, not a printed value. Like-named read-outs stand apart in the source and are kept apart here.
Key:
[1] = physchem; format: physicochemical; details: 10 μg/ml in dimethylsulfoxide/physiological saline; for Percentage remainder: 0 hr.; for remaining at 3 h / remaining at 6 h / remaining at 24 h / remaining at 48 h / remaining at 72 h: read-out: Percentage remainder
Procedure: The stability of some Fredericamycin A derivatives and Fredericamycin A in their aqueous solutions were tested in accordance with the following procedures.
The test compounds were individually dissolved in dimethylsulfoxide, followed by dilution of the resulting solutions with physiological saline to adjust the final concentrations of the test compounds and Fredericamycin to 10 μg/ml respectively. The thus-prepared test solutions were then subjected to high performance liquid chromatography after predetermined time intervals to measure the percentage remainders of the test compounds.

[2] = test system: Ehrlich carcinoma; assay: Antitumor effect, survival of tumor-inoculated mice; format: in vivo, ICR mice; details: intraperitoneally, once a day for 10 days
[3] = test system: Piricularia oryzae IAM 5016; assay: microbe, parasite or virus in culture; format: cell-based
[4] = test system: Staphylococcus epidermidis ATCC 12228; assay: MIC, antibacterial activity (agar culture); format: cell-based; details: ATCC12228, 37° C., 18-20 hours, Mueller-Hinton agar, read-out: Minimum inhibitory concentration MIC
[5] = test system: Sarcina lutea ATCC 9341; assay: MIC, antibacterial activity (agar culture); format: cell-based; details: Micrococcus luteus, ATCC9341, 37° C., 18-20 hours, Mueller-Hinton agar, read-out: Minimum inhibitory concentration MIC
[6] = test system: Debaryomyces Kloecheri IFO 0015; assay: MIC, yeasts and molds (agar culture); format: cell-based; details: IFO0015, 28° C., 120 hours, glucose-peptone agar, read-out: Minimum inhibitory concentration MIC
[7] = test system: Saccharomyces ruxii 6507; assay: MIC, yeasts and molds (agar culture); format: cell-based; details: 28° C., 120 hours, glucose-peptone agar, read-out: Minimum inhibitory concentration MIC
[8] = test system: Streptococcus faecalis IFO 12964; assay: MIC, antibacterial activity (agar culture); format: cell-based; details: Enterococcus faecalis, IFO12964, 37° C., 18-20 hours, Mueller-Hinton agar, read-out: Minimum inhibitory concentration MIC
[9] = test system: Micrococcus lysodeikticus IFO 3333; assay: MIC, antibacterial activity (agar culture); format: cell-based; details: Micrococcus luteus, IFO3333, 37° C., 18-20 hours, Mueller-Hinton agar, read-out: Minimum inhibitory concentration MIC
[10] = test system: Penicillium chrysogenum ATCC 6010; assay: MIC, yeasts and molds (agar culture); format: cell-based; details: ATCC6010, 28° C., 120 hours, glucose-peptone agar, read-out: Minimum inhibitory concentration MIC
[11] = test system: Bacillus subtilis ATCC 6633; assay: MIC, antibacterial activity (agar culture); format: cell-based; details: ATCC6633, 37° C., 18-20 hours, Mueller-Hinton agar, read-out: Minimum inhibitory concentration MIC
[12] = test system: Pseudomonas aeruginosa IFO 13736; assay: MIC, antibacterial activity (agar culture); format: cell-based; details: IFO13736, 37° C., 18-20 hours, Mueller-Hinton agar, read-out: Minimum inhibitory concentration MIC
[13] = test system: Candida albicans NHL 4019; assay: MIC, yeasts and molds (agar culture); format: cell-based; details: NHL4019, 28° C., 120 hours, glucose-peptone agar, read-out: Minimum inhibitory concentration MIC
[14] = test system: Trichophyton mentagrophytes QM 248; assay: MIC, yeasts and molds (agar culture); format: cell-based; details: QM248, 28° C., 120 hours, glucose-peptone agar, read-out: Minimum inhibitory concentration MIC
[15] = test system: Staphylococcus aureus Smith; assay: MIC, antibacterial activity (agar culture); format: cell-based; details: 37° C., 18-20 hours, Mueller-Hinton agar, read-out: Minimum inhibitory concentration MIC
[16] = test system: mouse leukemia P-388; assay: Antitumor effect, survival of tumor-inoculated mice; format: in vivo, CDF1 mice; details: intraperitoneally, once a day for 10 days
Procedure: Antitumor effects of some Fredericamycin A derivatives against Ehrlich carcinoma, Meth-A fibrosarcoma and mouse leukemia P-388 were tested in accordance with the following procedures. Antitumor effects against Ehrlich carcinoma and Meth-A fibrosarcoma are expressed by percentage of mean survival time of test and control animals. Antitumor effects against P-388 are expressed by percentage of median survival time of test and control animals.
(ii) Meth-A fibrosarcoma and mouse leukemia P-388:
1×10^6 tumor cells were inoculated to CDF1 mice (.male., Charles River Japan Inc.) intraperitoneally. Each tested compound was given intraperitoneally once a day for 10 days from 1 day after tumor inoculation.

[17] = test system: Escherichia coli 0-1; assay: MIC, antibacterial activity (agar culture); format: cell-based; details: 01, 37° C., 18-20 hours, Mueller-Hinton agar, read-out: Minimum inhibitory concentration MIC
[18] = test system: Aspergillus niger ATCC 9642; assay: MIC, yeasts and molds (agar culture); format: cell-based; details: ATCC9642, 28° C., 120 hours, glucose-peptone agar, read-out: Minimum inhibitory concentration MIC
[19] = 120 h; read-out: Minimum inhibitory concentration MIC
[20] = Mus musculus, ip, 240 h, 2.0 mg/kg/day, read-out: percentage of mean survival time of test and control animals
[21] = Mus musculus, ip, 240 h, read-out: percentage of mean survival time of test and control animals

SMILES	Percentage remainder [1]	remaining at 3 h [1]	remaining at 6 h [1]	remaining at 24 h [1]	remaining at 48 h [1]	remaining at 72 h [1]	percentage of mean survival time of test and control animals ([2]; 0.5 mg/kg/day)	percentage of mean survival time of test and control animals ([2]; 1.0 mg/kg/day)	percentage of mean survival time of test and control animals ([2]; 2.0 mg/kg/day)	MIC [3, 19]	MIC [4]	response vs control in vivo at 2 mg/kg/day [2, 20]	response vs control in vivo at 4 mg/kg/day [2, 21]	response vs control in vivo at 8 mg/kg/day [2, 21]	percentage of median survival time of test and control animals ([16]; 2.0 mg/kg/day)	percentage of median survival time of test and control animals ([16]; 4.0 mg/kg/day)	percentage of median survival time of test and control animals ([16]; 8.0 mg/kg/day)	further results
CCCCCCCCCCCC(=O)Oc1c2c(c(OC(=O)CCCCCCCCCCC)c3c1C(=O)C1(CCc4cc5cc(CCCCC)[nH]c(=O)c5c(O)c41)C3=O)C(=O)C(OC)=CC2=O (stereo not drawn) [Compound 21]	100%	95.3%	92.2%	87.3%	80.5%	74.8%												
C/C=C/C=C/c1cc2cc3c(c(O)c2c(=O)[nH]1)C1(CC3)C(=O)c2c(OC(=O)CCCCC)c3c(c(OC(=O)CCCCC)c2C1=O)C(=O)C(OC)=CC3=O (stereo not drawn) [Compound 5]	100%	93.2%	88%	67.6%	57.8%	47.9%	over 247%	over 229%	over 256%	0.39 µg/mL (≈ 0.53 µM)	25 µg/mL (≈ 34 µM)							
CCCCCc1cc2cc3c(c(O)c2c(=O)[nH]1)C1(CC3)C(=O)c2c(OC(C)=O)c3c(c(OC(C)=O)c2C1=O)C(=O)C(OC)=CC3=O (stereo not drawn) [Compound 18, diacetyltetrahydrofredericamycin A]											0.78 µg/mL (≈ 1.24 µM)	125%	> 188%	> 212%	138%	142%	147%	MIC [5]: 25 µg/mL (≈ 39.8 µM); MIC [6]: > 100 µg/mL; MIC [7]: > 100 µg/mL; MIC [8]: 25 µg/mL (≈ 39.8 µM); MIC [9]: 25 µg/mL (≈ 39.8 µM); MIC [10]: > 100 µg/mL; MIC ([3]; 120 h, read-out: Minimum inhibitory concentration MIC): 0.78 µg/mL (≈ 1.24 µM); MIC [11]: 50 µg/mL (≈ 79.7 µM); MIC [12]: > 100 µg/mL; MIC [13]: > 100 µg/mL; MIC [14]: > 100 µg/mL; MIC [15]: 25 µg/mL (≈ 39.8 µM); MIC [17]: > 100 µg/mL; MIC [18]: > 100 µg/mL
C/C=C/C=C/c1cc2cc3c(c(O)c2c(=O)[nH]1)C1(CC3)C(=O)c2c(OC(=O)CCCCCCCCCCC)c3c(c(OC(=O)CCCCCCCCCCC)c2C1=O)C(=O)C(OC)=CC3=O (stereo not drawn) [Compound 7]							104%	96%	194%	1.56 µg/mL (≈ 1.73 µM)	25 µg/mL (≈ 27.7 µM)							
CCCCCc1cc2cc3c(c(O)c2c(=O)[nH]1)C1(CC3)C(=O)c2c(c(OC(C)=O)c3c(OC(C)=O)c(OC)cc(OC(C)=O)c3c2OC(C)=O)C1=O (stereo not drawn) [Compound 12, leucotetraacetyltetrahydrofredericamycin A]	100%	99%	98.3%	97.1%	95.7%	94.4%						116%	136%	> 203%	142%	146%	152%	
C/C=C/C=C/c1cc2cc3c(c(O)c2c(=O)[nH]1)C1(CC3)C(=O)c2c(OC(=O)c3ccc(OC)cc3)c3c(c(OC(=O)c4ccc(OC)cc4)c2C1=O)C(=O)C(OC)=CC3=O (stereo not drawn) [Compound 10]										1.56 µg/mL (≈ 1.93 µM)	12.5 µg/mL (≈ 15.5 µM)	> 202%						response vs control in vivo at 0.5 mg/kg/day ([2]; Mus musculus, ip, 240 h, 0.5 mg/kg/day, read-out: percentage of mean survival time of test and control animals): 105%; response vs control in vivo at 1 mg/kg/day ([2]; Mus musculus, ip, 240 h, 1.0 mg/kg/day, read-out: percentage of mean survival time of test and control animals): 171%
